# Data: patent US6461997B1, “Triazole sulfones having herbicidal activity” (Monsanto Technology LLC, priority 1999, dated 2002)
# Legend:
# SASKR (russian thistle) = assay: Pre-plant incorporated (PPI) herbicidal activity, cool season; assay type: in vivo, Salsola kali
# Protocol: (§1) In another set of tests, the pre-plant incorporated (PPI) activity of compounds of this invention was evaluated on the same species as for the pre-emergence tests described above. In the PPI tests the following procedure, designed to simulate PPI application, was used.
# (§2) A pre-prepared topsoil mixture (described above) was placed in a pot and compacted to a depth of 1.0 to 1.25 cm from the top of the pot. Seeds of each of several monocotyledonous and dicotyledonous annual plant species were placed on top of the soil. A sufficient quantity of soil to cover the seeds and level fill the pot was weighed into an open container. A known amount of the test compound was dissolved or suspended in an organic solvent and applied by spraying to this cover soil. The cover soil was thoroughly mixed to distribute the test compound throughout the cover soil, and was then applied as a cover layer over the seeds. Untreated soil was used as a cover layer for control pots. After treatment the plants were placed in a greenhouse where they received 0.64 cm of overhead irrigation. All subsequent watering consisted of a light overhead mist and/or subirrigation as needed for germination and growth. Tables 9 and 10 below relate to warm season plant species which were placed after pre-emergence treatment in a greenhouse with a 30/21° C. day/night temperature regime. Tables 11 and 12 below relates to cool season plant species placed after pre-emergence treatment in a greenhouse or growth chamber with an 18/13° C. day/night temperature regime. Only the compounds of Examples 1, 6, 8, 11, 13 and 15-20 were included in PPI tests.
# (§3) Approximately 14 days after planting and treating, the plants were observed and herbicidal efficacy recorded as percent inhibition by comparison with untreated plants.
# STEME (common chickweed) = assay: as above; assay type: in vivo, Stellaria media
# Protocol: as §1, §2, §3
# SETFA (giant foxtail) = assay: Pre-plant incorporated (PPI) herbicidal activity, warm season; assay type: in vivo, Setaria faberi
# Protocol: as §1, §2, §3
# wheat (TRZAW) = assay: Selectivity test, PPI, cool season crop; assay type: in vivo, Triticum aestivum; settings: Triticum aestivum, PPI application, read-out: Percent inhibition TRZAW
# Protocol: as §2, §3
# (§4) Additional pre-emergence and PPI tests were conducted by the procedures described above, on warm and cool season weed species in the presence of crop species, to assess herbicidal selectivity. Crop species included in warm season tests were corn (Zea mays, ZEAMX), rice (Oryza sativa, ORYSA) and soybean (Glycine max, GLYMX). Crop species included in cool season tests were wheat (Triticum aestivum, TRZAW), barley (Hordeunm vulgare, HORVX) and oilseed rape (Brassica napus, BRSNS).
# (§5) Tables 15 and 16 relate to pre-emergence and PPI tests respectively on warm season species. Table 17 relates to pre-emergence tests on cool season species.
# corn (ZEAMX) = assay: Selectivity test, PPI, warm season crop; assay type: in vivo, Zea mays; settings: Zea mays, PPI application, read-out: Percent inhibition ZEAMX
# Protocol: as §2, §3, §4, §5
# barley (HORVX) = assay: Selectivity test, PPI, cool season crop; assay type: in vivo, Hordeunm vulgare; settings: Hordeum vulgare, PPI application, read-out: Percent inhibition HORVX
# Protocol: as §2, §3, §4, §5
# [1] = test system: GALAP (catchweed bedstraw); assay: Pre-plant incorporated (PPI) herbicidal activity, cool season; assay type: in vivo, Galium aparine
# Protocol: as §1, §2, §3
# [2] = test system: LAMPU (purple deadnettle); assay: as above; assay type: in vivo, Lamium purpureum
# Protocol: as §1, §2, §3
# SORVU (shattercane) = assay: Pre-plant incorporated (PPI) herbicidal activity, warm season; assay type: in vivo, Sorghum vulgare
# Protocol: as §1, §2, §3
# [3] = test system: AGRRE (quackgrass (seedling)); assay: Pre-plant incorporated (PPI) herbicidal activity, cool season; assay type: in vivo, Elymus repens
# Protocol: as §1, §2, §3
# SINAR (wild mustard) = assay: as above; assay type: in vivo, Sinapis arvensis
# Protocol: as §1, §2, §3
# [4] = test system: BRAPP (broadleaf signalgrass); assay: Pre-plant incorporated (PPI) herbicidal activity, warm season; assay type: in vivo, Brachiaria platyphylla
# Protocol: as §1, §2, §3
# SETVI (green foxtail) = assay: Pre-plant incorporated (PPI) herbicidal activity, cool season; assay type: in vivo, Setaria viridis
# Protocol: as §1, §2, §3
# [5] = pre-plant incorporated, lowest tested rate with 80% or greater inhibition, about 14 days
smiles,measurement,setting,value
"CCN(CC)C(=O)n1cnc(S(=O)(=O)C(F)(F)Br)n1 [Example 1, 3-(bromodifluoromethylsulfonyl)-1-(N,N-diethylcarbamoyl)-1,2,4-triazole]",inhibition at 30 g/ha,"SASKR (russian thistle); Salsola kali, weed, PPI application, 30 g/ha, read-out: Percent inhibition SASKR",80%
same,inhibition at 100 g/ha,"SASKR (russian thistle); Salsola kali, weed, PPI application, 100 g/ha, read-out: Percent inhibition SASKR",100%
same,inhibition at 300 g/ha,"SASKR (russian thistle); Salsola kali, weed, PPI application, 300 g/ha, read-out: Percent inhibition SASKR",100%
same,inhibition at 900 g/ha,"SASKR (russian thistle); Salsola kali, weed, PPI application, 900 g/ha, read-out: Percent inhibition SASKR",100%
same,"PPI activity GR80, SASKR",SASKR (russian thistle); [5],100 g/ha
same,inhibition at 30 g/ha,"STEME (common chickweed); Stellaria media, weed, PPI application, 30 g/ha, read-out: Percent inhibition STEME",60%
same,inhibition at 100 g/ha,"STEME (common chickweed); Stellaria media, weed, PPI application, 100 g/ha, read-out: Percent inhibition STEME",100%
same,inhibition at 300 g/ha,"STEME (common chickweed); Stellaria media, weed, PPI application, 300 g/ha, read-out: Percent inhibition STEME",99%
same,inhibition at 900 g/ha,"STEME (common chickweed); Stellaria media, weed, PPI application, 900 g/ha, read-out: Percent inhibition STEME",95%
same,"PPI activity GR80, STEME",STEME (common chickweed); [5],100 g/ha
same,inhibition at 10 g/ha,"SETFA (giant foxtail); Setaria faberi, PPI application, 10 g/ha, read-out: Percent inhibition SETFA",100%
same,inhibition at 30 g/ha,"SETFA (giant foxtail); Setaria faberi, PPI application, 30 g/ha, read-out: Percent inhibition SETFA",70%
same,inhibition at 100 g/ha,"SETFA (giant foxtail); Setaria faberi, PPI application, 100 g/ha, read-out: Percent inhibition SETFA",100%
same,inhibition at 300 g/ha,"SETFA (giant foxtail); Setaria faberi, PPI application, 300 g/ha, read-out: Percent inhibition SETFA",100%
same,inhibition at 900 g/ha,"SETFA (giant foxtail); Setaria faberi, PPI application, 900 g/ha, read-out: Percent inhibition SETFA",100%
same,"PPI activity GR80, SETFA",SETFA (giant foxtail); [5],30 g/ha
same,inhibition at 30 g/ha,wheat (TRZAW); 30 g/ha,0%
same,inhibition at 100 g/ha,wheat (TRZAW); 100 g/ha,0%
same,inhibition at 300 g/ha,wheat (TRZAW); 300 g/ha,10%
same,inhibition at 900 g/ha,wheat (TRZAW); 900 g/ha,30%
same,inhibition at 10 g/ha,corn (ZEAMX); 10 g/ha,0%
same,inhibition at 30 g/ha,corn (ZEAMX); 30 g/ha,0%
same,inhibition at 100 g/ha,corn (ZEAMX); 100 g/ha,0%
same,inhibition at 300 g/ha,corn (ZEAMX); 300 g/ha,25%
same,inhibition at 900 g/ha,corn (ZEAMX); 900 g/ha,70%
same,inhibition at 30 g/ha,barley (HORVX); 30 g/ha,0%
same,inhibition at 100 g/ha,barley (HORVX); 100 g/ha,10%
same,inhibition at 300 g/ha,barley (HORVX); 300 g/ha,30%
same,inhibition at 900 g/ha,barley (HORVX); 900 g/ha,50%
same,inhibition at 30 g/ha,"[1]; Galium aparine, weed, PPI application, 30 g/ha, read-out: Percent inhibition GALAP",70%
same,inhibition at 100 g/ha,"[1]; Galium aparine, weed, PPI application, 100 g/ha, read-out: Percent inhibition GALAP",100%
same,inhibition at 300 g/ha,"[1]; Galium aparine, weed, PPI application, 300 g/ha, read-out: Percent inhibition GALAP",100%
same,inhibition at 900 g/ha,"[1]; Galium aparine, weed, PPI application, 900 g/ha, read-out: Percent inhibition GALAP",100%
same,"PPI activity GR80, GALAP",[1]; [5],100 g/ha
same,inhibition at 30 g/ha,"[2]; Lamium purpureum, weed, PPI application, 30 g/ha, read-out: Percent inhibition LAMPU",80%
same,inhibition at 100 g/ha,"[2]; Lamium purpureum, weed, PPI application, 100 g/ha, read-out: Percent inhibition LAMPU",70%
same,inhibition at 300 g/ha,"[2]; Lamium purpureum, weed, PPI application, 300 g/ha, read-out: Percent inhibition LAMPU",95%
same,inhibition at 900 g/ha,"[2]; Lamium purpureum, weed, PPI application, 900 g/ha, read-out: Percent inhibition LAMPU",100%
same,"PPI activity GR80, LAMPU",[2]; [5],100 g/ha
same,inhibition at 10 g/ha,"SORVU (shattercane); Sorghum bicolor, PPI application, 10 g/ha, read-out: Percent inhibition SORVU",20%
same,inhibition at 30 g/ha,"SORVU (shattercane); Sorghum bicolor, PPI application, 30 g/ha, read-out: Percent inhibition SORVU",80%
same,inhibition at 100 g/ha,"SORVU (shattercane); Sorghum bicolor, PPI application, 100 g/ha, read-out: Percent inhibition SORVU",100%
same,inhibition at 300 g/ha,"SORVU (shattercane); Sorghum bicolor, PPI application, 300 g/ha, read-out: Percent inhibition SORVU",100%
same,inhibition at 900 g/ha,"SORVU (shattercane); Sorghum bicolor, PPI application, 900 g/ha, read-out: Percent inhibition SORVU",100%
same,"PPI activity GR80, SORVU",SORVU (shattercane); [5],100 g/ha
same,inhibition at 30 g/ha,"[3]; Elymus repens, weed, PPI application, 30 g/ha, read-out: Percent inhibition AGRRE",0%
same,inhibition at 100 g/ha,"[3]; Elymus repens, weed, PPI application, 100 g/ha, read-out: Percent inhibition AGRRE",20%
same,inhibition at 300 g/ha,"[3]; Elymus repens, weed, PPI application, 300 g/ha, read-out: Percent inhibition AGRRE",60%
same,inhibition at 900 g/ha,"[3]; Elymus repens, weed, PPI application, 900 g/ha, read-out: Percent inhibition AGRRE",95%
same,"PPI activity GR80, AGRRE",[3]; [5],"* (activity observed, at least at highest rate, but <80% inhibition)"
same,inhibition at 30 g/ha,"SINAR (wild mustard); Brassica, weed, PPI application, 30 g/ha, read-out: Percent inhibition SINAR",100%
same,inhibition at 100 g/ha,"SINAR (wild mustard); Brassica, weed, PPI application, 100 g/ha, read-out: Percent inhibition SINAR",100%
same,inhibition at 300 g/ha,"SINAR (wild mustard); Brassica, weed, PPI application, 300 g/ha, read-out: Percent inhibition SINAR",100%
same,inhibition at 900 g/ha,"SINAR (wild mustard); Brassica, weed, PPI application, 900 g/ha, read-out: Percent inhibition SINAR",100%
same,"PPI activity GR80, SINAR",SINAR (wild mustard); [5],100 g/ha
same,inhibition at 10 g/ha,"[4]; Urochloa platyphylla, PPI application, 10 g/ha, read-out: Percent inhibition BRAPP",0%
same,inhibition at 30 g/ha,"[4]; Urochloa platyphylla, PPI application, 30 g/ha, read-out: Percent inhibition BRAPP",0%
same,inhibition at 100 g/ha,"[4]; Urochloa platyphylla, PPI application, 100 g/ha, read-out: Percent inhibition BRAPP",100%
same,inhibition at 300 g/ha,"[4]; Urochloa platyphylla, PPI application, 300 g/ha, read-out: Percent inhibition BRAPP",90%
same,inhibition at 900 g/ha,"[4]; Urochloa platyphylla, PPI application, 900 g/ha, read-out: Percent inhibition BRAPP",100%
same,"PPI activity GR80, BRAPP",[4]; [5],100 g/ha
same,inhibition at 30 g/ha,"SETVI (green foxtail); Setaria viridis, weed, PPI application, 30 g/ha, read-out: Percent inhibition SETVI",80%
same,inhibition at 100 g/ha,"SETVI (green foxtail); Setaria viridis, weed, PPI application, 100 g/ha, read-out: Percent inhibition SETVI",99%
same,inhibition at 300 g/ha,"SETVI (green foxtail); Setaria viridis, weed, PPI application, 300 g/ha, read-out: Percent inhibition SETVI",100%
same,inhibition at 900 g/ha,"SETVI (green foxtail); Setaria viridis, weed, PPI application, 900 g/ha, read-out: Percent inhibition SETVI",100%
same,"PPI activity GR80, SETVI",SETVI (green foxtail); [5],100 g/ha
